Data taken from article PMC13544220, “Glycemic and bodyweight effects of GIPR coding variation reflect differences in surface expression and intrinsic functional impairment” (Science Advances, 2026).

Legend:
[1] = system: wild-type and variant SNAP-GIPR; assay: cADDis cAMP imaging in AD293 cells, ensemble, expression-matched and per decile; assay type: cell-based, human
Method in brief: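 AD293 cells were transfected with SNAP-GIPR constructs and cotransduced with the cADDis Green Up cAMP sensor, then labeled after 24 h with 500 nM SNAP-Surface Alexa Fluor 647. Per-cell cADDis intensity was tracked at 37°C in KRBH with 6 mM glucose and 0.1% BSA.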

[2] = system: wild-type and variant SNAP-GIPR; assay: Single-concentration GIP cAMP response by HTRF in AD293 cells; assay type: cell-based, human; conditions: for HTRF cAMP: 100 nM GIP, AD293, 30 min, mean, n=8
Experimental: All variants were tested in parallel on each occasion to control for transfection efficiency differences between experiments.

[3] = system: wild-type and variant SNAP-GIPR; assay: Constitutive and agonist-mediated internalization, reversible SNAP-tag labelling, AD293 cells; assay type: cell-based, human; conditions: 100 nM GIP
Method in brief: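 Percentage internalization is read as the fraction of specific SNAP fluorescence that survives Mesna stripping, compared with the image taken before Mesna. Wells are imaged in TNE buffer at pH 8.6 and again after 10 min.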

[4] = system: wild-type and variant SNAP-GIPR in Gipr-/- mouse islets; assay: Glucagon secretion from Gipr-/- mouse islets transduced with GIPR adenoviruses; assay type: cell-based; conditions: Gipr-/- islets, 0.5 mM glucose; each variant vs wild type
Experimental: Isolated islets used for insulin secretion assays were treated in 1.5-ml microcentrifuge tubes. Eight-ten islets were used per well with two-three technical replicates per condition. […] At the end of the treatment, supernatants containing the secreted insulin or glucagon were collected, centrifuged at 1000g for 5 min, and transferred to fresh tubes. […] The lysates were sonicated 3× for 10 s in a water bath and centrifuged at 10,000g for 10 min, and the supernatants were collected. The samples were stored at −20°C until the insulin or glucagon concentrations were determined using an Insulin Ultra-Sensitive HTRF Assay kit (62IN2PEG, Revvity) or an HTRF Glucagon Detection Kit (62CGLPEG, Revvity) respectively, according to the manufacturer’s instructions. GraphPad Prism 9.0 was used for the generation of the standard curve and sample concentration extrapolation. The total insulin or glucagon content was calculated by adding the secreted insulin to the insulin content of the lysates, and secretion was reported as the percentage release of total. The percent secretion of islets treated with agonist was normalized to that of islets treated with vehicle and reported as a fold change.

Structure (SMILES): CC[C@H](C)[C@H](NC(=O)[C@H](CO)NC(=O)[C@H](Cc1ccc(O)cc1)NC(=O)[C@H](CC(=O)O)NC(=O)[C@H](CO)NC(=O)[C@@H](NC(=O)[C@H](Cc1ccccc1)NC(=O)[C@@H](NC(=O)CNC(=O)[C@H](CCC(=O)O)NC(=O)[C@H](C)NC(=O)[C@@H](N)Cc1ccc(O)cc1)[C@@H](C)O)[C@@H](C)CC)C(=O)N[C@@H](C)C(=O)N[C@@H](CCSC)C(=O)N[C@@H](CC(=O)O)C(=O)N[C@@H](CCCCN)C(=O)N[C@H](C(=O)N[C@@H](Cc1c[nH]cn1)C(=O)N[C@@H](CCC(N)=O)C(=O)N[C@@H](CCC(N)=O)C(=O)N[C@@H](CC(=O)O)C(=O)N[C@@H](Cc1ccccc1)C(=O)N[C@H](C(=O)N[C@@H](CC(N)=O)C(=O)N[C@@H](Cc1c[nH]c2ccccc12)C(=O)N[C@@H](CC(C)C)C(=O)N[C@@H](CC(C)C)C(=O)N[C@@H](C)C(=O)N[C@@H](CCC(N)=O)C(=O)N[C@@H](CCCCN)C(=O)NCC(=O)N[C@@H](CCCCN)C(=O)N[C@@H](CCCCN)C(=O)N[C@@H](CC(N)=O)C(=O)N[C@@H](CC(=O)O)C(=O)N[C@@H](Cc1c[nH]c2ccccc12)C(=O)N[C@@H](CCCCN)C(=O)N[C@@H](Cc1c[nH]cn1)C(=O)N[C@@H](CC(N)=O)C(=O)N[C@H](C(=O)N[C@H](C(=O)N[C@@H](CCC(N)=O)C(=O)O)[C@@H](C)O)[C@@H](C)CC)C(C)C)[C@@H](C)CC [GIP, glucose-dependent insulinotropic polypeptide, reference compound]
- cADDis cAMP response at low own expression ([1]; AD293, 100 pM GIP, E354Q (lesser extent A207V, E252D, A268V)): increased responses relative to the wild type
- cADDis cAMP response, expression-matched ([1]; AD293, 100 pM GIP, R101H, S64A, R217L, L262H, L304R): at least partly restored to wild-type levels
- cADDis cAMP response at highest own expression ([1]; AD293, 100 pM GIP, R136W, R131S, T116R, S64A): wild type–like responses
- cADDis cAMP response, expression-matched ([1]; AD293, 100 pM GIP, all variants with reduced ensemble response): still showed LoF
- cADDis cAMP response, expression-matched ([1]; AD293, 100 pM and 100 nM GIP, R183Q, R190Q, D66G, E288G): no rescue of function
- HTRF cAMP ([2]; A207V): 1.3964 vs. experimental average
- HTRF cAMP ([2]; A268V): 1.283 vs. experimental average
- cAMP response ([2]; AD293, 100 pM GIP, E252D and A268V): GoF cAMP responses
- cAMP response ([2]; AD293, 100 pM GIP, E354Q): increased response
- cAMP response ([2]; AD293, 100 pM GIP, R136W and R131S): reduced cAMP response
- cAMP response ([2]; AD293, 100 pM and 100 nM GIP, 10 variants with lowest surface expression): reduced cAMP responses
- cAMP response at higher concentration ([2]; AD293, 100 nM GIP, S64A, R217L, L262H): at least a partially restored response
- HTRF cAMP ([2]; D66G): 0.328 vs. experimental average
- HTRF cAMP ([2]; E252D): 1.787 vs. experimental average
- HTRF cAMP ([2]; E288G): 0.3648 vs. experimental average
- HTRF cAMP ([2]; E354Q): 1.4229 vs. experimental average
- HTRF cAMP ([2]; E463Q): 1.311 vs. experimental average
- HTRF cAMP ([2]; G438S): 1.655 vs. experimental average
- HTRF cAMP ([2]; I378M): 1.479 vs. experimental average
- HTRF cAMP ([2]; I403V): 1.595 vs. experimental average
- HTRF cAMP ([2]; L100F): 1.598 vs. experimental average
- HTRF cAMP ([2]; L262H): 1.14 vs. experimental average
- HTRF cAMP ([2]; L262V): 1.331 vs. experimental average
- HTRF cAMP ([2]; L304R): 0.7364 vs. experimental average
- HTRF cAMP ([2]; R101H): 0.2474 vs. experimental average
- HTRF cAMP ([2]; R131S): 1.306 vs. experimental average
- HTRF cAMP ([2]; R136W): 1.324 vs. experimental average
- HTRF cAMP ([2]; R183Q): 0.2411 vs. experimental average
- HTRF cAMP ([2]; R190Q): 0.2205 vs. experimental average
- HTRF cAMP ([2]; R196G): 1.594 vs. experimental average
- HTRF cAMP ([2]; R217L): 1.142 vs. experimental average
- HTRF cAMP ([2]; R300W): 1.632 vs. experimental average
- HTRF cAMP ([2]; R336P): 1.143 vs. experimental average
- HTRF cAMP ([2]; R341P): 0.1915 vs. experimental average
- HTRF cAMP ([2]; R404H): 1.255 vs. experimental average
- HTRF cAMP ([2]; S64A): 1.061 vs. experimental average
- HTRF cAMP ([2]; S415G): 1.323 vs. experimental average
- HTRF cAMP ([2]; S415I): 1.113 vs. experimental average
- HTRF cAMP ([2]; S447T): 1.418 vs. experimental average
- HTRF cAMP ([2]; T116R): 1.485 vs. experimental average
- HTRF cAMP ([2]; WT): 1.495 vs. experimental average
- GIP-induced increase in internalization ([3]; R190Q, R101H, E288G, D66G, R183Q, either/both AD293 and INS-1): statistically significant reductions in internalization
- internalization ([3]; most variants, AD293 and INS-1): wild type–like internalization
- glucagon release [4]: apparent but nonstatistically significant reduction in glucagon release
